PMC3504309 (ChemMedChem, 2011)

Tested on: human K562 cells
Assay: Human K562 growth inhibition assay
Type: cell-based
Conditions: for Antiproliferative effect on growth of human K562 cells (in words): 333 μM was the highest concentration tested; for IC50: Homo sapiens, K562, 48 h, read-out: Growth inhibition of human K562 cells IC50

## CO[C@@H](C(=O)NCCC(c1ccccc1)c1ccco1)[C@H](O)[C@@H](O)[C@H](O)/C=C/C(C)(C)C (stereo partly drawn) [Compound 6, (2R,3R,4S,5R,E)-N-(3-(furan-2-yl)-3-phenylpropyl)-3,4,5-trihydroxy-2-methoxy-8,8-dimethylnon-6-enamide]
  Antiproliferative effect on growth of human K562 cells (in words): low and reproducible activity
  IC50: 79.6 µM

## CO[C@@H](C(=O)NCC1CCCN(C(=O)C(C)C)C1)[C@H](O)[C@@H](O)[C@H](O)/C=C/C(C)(C)C (stereo partly drawn) [Compound 4, (2R,3R,4S,5R,E)-3,4,5-trihydroxy-N-((1-isobutyrylpiperidin-3-yl)methyl)-2-methoxy-8,8-dimethylnon-6-enamide]
  Antiproliferative effect on growth of human K562 cells (in words): no or weak activity
  IC50: > 333 µM

## CO[C@@H](C(=O)NC1Cc2ccccc2C1)[C@H](O)[C@@H](O)[C@H](O)/C=C/C(C)(C)C [Compound 8, (2R,3R,4S,5R,E)-N-(2,3-dihydro-1H-inden-2-yl)-3,4,5-trihydroxy-2-methoxy-8,8-dimethylnon-6-enamide]
  Antiproliferative effect on growth of human K562 cells (in words): no or weak activity
  IC50: > 333 µM

## CO[C@@H](C(=O)NCC(N)=O)[C@H](O)[C@@H](O)[C@H](O)/C=C/C(C)(C)C [Compound 9, (2R,3R,4S,5R,E)-N-(2-amino-2-oxoethyl)-3,4,5-trihydroxy-2-methoxy-8,8-dimethylnon-6-enamide]
  Antiproliferative effect on growth of human K562 cells (in words): no or weak activity
  IC50: > 333 µM

## CO[C@@H](C(=O)NCC1CCCN(C(=O)C2CC2)C1)[C@H](O)[C@@H](O)[C@H](O)/C=C/C(C)(C)C (stereo partly drawn) [Compound 5, (2R,3R,4S,5R,E)-N-((1-(cyclopropanecarbonyl)piperidin-3-yl)methyl)-3,4,5-trihydroxy-2-methoxy-8,8-dimethylnon-6-enamide]
  Antiproliferative effect on growth of human K562 cells (in words): no or weak activity
  IC50: > 333 µM

## CO[C@@H](C(=O)NCCOc1c(C)cc(C)cc1C)[C@H](O)[C@@H](O)[C@H](O)/C=C/C(C)(C)C [Compound 10, (2R,3R,4S,5R,E)-3,4,5-trihydroxy-N-(2-(mesityloxy)ethyl)-2-methoxy-8,8-dimethylnon-6-enamide]
  Antiproliferative effect on growth of human K562 cells (in words): low and reproducible activity
  IC50: 37.8 µM

## CO[C@@H](C(=O)NCCC(c1ccc(F)cc1)c1ccco1)[C@H](O)[C@@H](O)[C@H](O)/C=C/C(C)(C)C (stereo partly drawn) [Compound 7, (2R,3R,4S,5R,E)-N-(3-(4-fluorophenyl)-3-(furan-2-yl)propyl)-3,4,5-trihydroxy-2-methoxy-8,8-dimethylnon-6-enamide]
  Antiproliferative effect on growth of human K562 cells (in words): low and reproducible activity
  IC50: 96.5 µM
